Test results published in PMC9905731, “PIN1 and PIN4 inhibition via parvulin impeders Juglone, PiB, ATRA, 6,7,4′-THIF, KPT6566, and EGCG thwarted hepatitis B virus replication” (Frontiers in Microbiology, 2023).

Columns and labels:
HBV cccDNA [1] = assay: HBV cccDNA levels by Hirt extraction and Southern blotting; format: cell-based, hepatitis B virus; conditions: HBV-infected HepG2-hNTCP-C9 cells, 10 days; 20 μM Juglone or PiB, 30 μM ATRA, 6,7,4′-THIF or KPT-6566, 40 μM EGCG
Protocol: Mock-infected HepG2-hNTCP-C9 cells (lane 1) or HBV-infected HepG2-hNTCP-C9 cells (lanes 2–3) were treated with solvent (lane 2) or 20 μM Juglone, 20 μM PiB, 30 μM ATRA, 30 μM 6,7,4′-THIF, 30 μM KPT6566, or 40 μM EGCG (lane 3) for 10 days. HBV cccDNA levels were determined by the Hirt extraction method, as described previously ([Saeed et al., 2019]). Data are presented from three independent experiments.
(§1) HBV cccDNA synthesis was examined using the protein-free Hirt cccDNA extraction method. Briefly, HBV-infected PIN1 or PIN4 KD cells at approximately 100% confluency were incubated for 10 days, lysed with 10 mM EDTA and 10 mM Tris–HCl [pH 7.5] containing 0.6% SDS-TE buffer, treated for 16 h by adding 5 M NaCl to the final concentration of 1 M, and precipitated by centrifugation for 30 min at 14,500 × g. The supernatants were subjected to multiple phenol extractions (two times) followed by cccDNA extraction via phenol/chloroform. The supernatant containing cccDNA was precipitated by ethanol and furthermore analyzed by Southern blotting. The HBV cccDNA ChIP was performed using cccDNA-specific primers and analyzed by PCR (GeneAmp 2,700, Applied Biosystems), as described previously ([Bichko et al., 1985]; [Piracha et al., 2018], [2020]; [Saeed et al., 2019], [2021]). From the clinical specimens, HBV cccDNA levels were examined, as described previously ([Zhang et al., 2017]), using 251F 5′-GAC TYG TGG TGG ACT TCT C-3′ and 1190R 5′-TCA GCA AAY ACT YGG CA-3′ set of primers.

HBV cccDNA [2] = assay: Chromatin immunoprecipitation (ChIP) in HBV-infected HepG2-hNTCP-C9-PIN4 KD cells; format: cell-based, hepatitis B virus; conditions: 20 μM Juglone or PiB, 30 μM ATRA, 6,7,4′-THIF or KPT6566, 40 μM EGCG, vs solvent
Protocol: Chromatin immunoprecipitation (ChIP) was performed in HBV-infected HepG2-hNTCP-C9 PIN1 or PIN4 KD cells to determine the comparative effects of these parvulins on cccDNA (Figure 11D). The chromatins were prepared and immunoprecipitated with IgG or anti-PIN1, HBc, PIN4, acetylated H3 (anti-AcH3), RNA polymerase-II (anti-RNA Pol-II), and histone H3 antibodies and furthermore analyzed by semiquantitative PCR (GeneAmp PCR 2700, Applied Biosystems; [Bichko et al., 1985]; [Saeed et al., 2019], [2021]; [Piracha et al., 2020]). In contrast to endogenous PIN1, the endogenous PIN4 was recruited to HBV cccDNA. Of note, upon PIN1 KD, the recruitment of HBc protein to the cccDNA remains unchanged.
(A–F) HepG2-hNTCP-C9-PIN4 KD cells were mock-infected (lane 1) or HBV infected (lanes 2–3) and treated with solvent (lane 2), or parvulin inhibitors (A) 20 μM Juglone, (B) 20 μM PiB, (C) 30 μM ATRA, (D) 30 μM 6,7,4′-THIF, (E) 30 μM KPT6566, and (F) 40 μM EGCG. The chromatin solutions and ChIP were performed in HBV-infected HepG2-hNTCP-C9-PIN4 KD cells, as described in the “Material and Methods” section and were subjected to immunoprecipitation with normal rabbit polyclonal IgG, anti-PIN1, anti-PIN4, anti-RNA Pol II, anti-acetyl H3, or anti-H3 antibodies. The immunoprecipitated chromatins were analyzed by PCR. The presented data are representative of three independent experiments.
as §1

SMILES	HBV cccDNA levels (HBV cccDNA [1])	recruitments of endogenous PIN4 and HBc onto HBV cccDNA (HBV cccDNA [2])
CCOC(=O)CN1C(=O)c2ccc3c4c(ccc(c24)C1=O)C(=O)N(CC(=O)OCC)C3=O [PiB, 1,3,6,8-tetrahydro-1,3,6,8-tetraoxo-benzo [lmn][3,8] phenanthroline-2,7-diacetic acid, 2,7-diethyl ester]	without affecting HBV cccDNA levels	reduced
O=C(O[C@@H]1Cc2c(O)cc(O)cc2O[C@@H]1c1cc(O)c(O)c(O)c1)c1cc(O)c(O)c(O)c1 [EGCG, Epigallocatechin gallate]	without affecting HBV cccDNA levels	reduced
CC1=C(/C=C/C(C)=C/C=C/C(C)=C/C(=O)O)C(C)(C)CCC1 [ATRA, All-trans-retinoic acid]	without affecting HBV cccDNA levels	reduced
CC(C)(C)c1ccc(S(=O)(=O)N=C2C=C(SCC(=O)O)C(=O)c3ccccc32)cc1 [KPT6566, 2-[[4-[[[4-(1,1-dimethylethyl)phenyl]sulfonyl]imino]-1,4-dihydro-1-oxo-2-naphthalenyl]thio] acetic acid]	without affecting HBV cccDNA levels	reduced
O=c1c(-c2ccc(O)cc2)coc2cc(O)c(O)cc12 [6,7,4′-THIF, 6,7-dihydroxy-3-(4-hydroxyphenyl)-4H-chromen-4-one]	without affecting HBV cccDNA levels	reduced
O=C1C=CC(=O)c2c(O)cccc21 [Juglone, 5-hydroxyl-1,4-naphthoquinone]	without affecting HBV cccDNA levels	reduced
